molecular target: T1, mGlyT-1b (Mus musculus, UniProt P28571); assay: Glycine Uptake Inhibition Assay (mGlyT-1b); type: cell-based; settings: [3H]-glycine uptake in Flp-in-CHO cells stably transfected with mGlyT-1b cDNA; 20 min preincubation at 22° C.
T1 construct: host or cells: Flp-in-CHO cells, stably transfected
T1 sequence (P28571 1-651 isoform P28571-2): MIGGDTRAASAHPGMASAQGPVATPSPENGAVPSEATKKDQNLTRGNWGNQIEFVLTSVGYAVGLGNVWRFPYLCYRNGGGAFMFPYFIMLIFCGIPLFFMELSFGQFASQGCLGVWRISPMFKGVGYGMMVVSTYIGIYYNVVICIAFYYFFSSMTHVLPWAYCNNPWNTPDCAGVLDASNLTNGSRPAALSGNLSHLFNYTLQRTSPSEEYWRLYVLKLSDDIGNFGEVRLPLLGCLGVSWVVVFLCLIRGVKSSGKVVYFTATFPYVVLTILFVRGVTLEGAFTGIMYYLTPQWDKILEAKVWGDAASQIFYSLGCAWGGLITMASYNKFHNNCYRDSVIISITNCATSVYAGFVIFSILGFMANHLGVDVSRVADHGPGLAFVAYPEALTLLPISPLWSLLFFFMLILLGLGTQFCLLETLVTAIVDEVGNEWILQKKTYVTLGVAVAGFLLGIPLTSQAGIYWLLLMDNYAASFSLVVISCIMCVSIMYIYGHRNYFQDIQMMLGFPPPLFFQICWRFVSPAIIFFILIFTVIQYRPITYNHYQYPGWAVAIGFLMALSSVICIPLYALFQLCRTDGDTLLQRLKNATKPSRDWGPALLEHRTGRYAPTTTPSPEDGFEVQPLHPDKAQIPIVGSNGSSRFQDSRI
Procedure: DMEM complete medium: Nutrient mixture F-12 (Gibco Life-technologies), fetal bovine serum (FBS) 5%, (Gibco life technologies), Penicillin/Streptomycin 1% (Gibco life technologies), Hygromycin 0.6 mg/ml (Gibco life technologies), Glutamine 1 mM Gibco life technologies) Uptake buffer (UB): 150 mM NaCl, 10 mM Hepes-Tris, pH 7.4, 1 mM CaCl2, 2.5 mM KCl, 2.5 mM MgSO4, 10 mM (+) D-glucose. Flp-in™-CHO (Invitrogen Cat n° R758-07) cells stably transfected with mGlyT1b cDNA.
Glycine Uptake Inhibition Assay (mGlyT-1b)
On day 1 mammalian cells, (Flp-in™-CHO), transfected with mGlyT-1b cDNA, were plated at the density of 40,000 cells/well in complete F-12 medium, without hygromycin in 96-well culture plates. On day 2, the medium was aspirated and the cells were washed twice with uptake buffer (UB). The cells were then incubated for 20 min at 22° C. with either (i) no potential competitor, (ii) 10 mM non-radioactive glycine, (iii) a concentration of a potential inhibitor. A range of concentrations of the potential inhibitor was used to generate data for calculating the concentration of inhibitor resulting in 50% of the effect (e.g. IC50, the concentration of the competitor inhibiting glycine uptake of 50%). A solution was then immediately added containing [^3H]-glycine 60 nM (11-16 Ci/mmol) and 25 μM non-radioactive glycine. The plates were incubated with gentle shaking and the reaction was stopped by aspiration of the mixture and washing (three times) with ice-cold UB. The cells were lysed with scintillation liquid, shaken 3 hours and the radioactivity in the cells was counted using a scintillation counter.

Structure (SMILES)	IC50 [nM]
COc1cc(C(F)(F)F)cc(SC)c1C(=O)N[C@@]1(c2ccccc2)CC[C@@H]2CC[C@H]1N2C (racemic) [Example 1, 2-Methoxy-N-((1RS,2RS,5SR)-8-methyl-2-phenyl-8-aza-bicyclo[3.2.1]oct-2-yl)-6-methylsulfanyl-4-trifluoromethyl-benzamide]	14
COc1cc(C(F)(F)F)cc(SC)c1C(=O)N[C@@]1(c2ccccc2)CC[C@@H]2CC[C@H]1N2C (racemic) [Example 3, 2-Methoxy-N-((1R,2R,5S)-8-methyl-2-phenyl-8-aza-bicyclo[3.2.1]oct-2-yl)-6-methylsulfanyl-4-trifluoromethyl-benzamide]	8
CN1[C@H]2CC[C@@H]1[C@](NC(=O)c1ccc(C(F)(F)F)cc1C1CC1)(c1ccccc1)CC2 (racemic) [Example 4, 2-Cyclopropyl-N-((1RS,2RS,5SR)-8-methyl-2-phenyl-8-aza-bicyclo[3.2.1]oct-2-yl)-4-trifluoromethyl-benzamide]	8
CCc1cc(C(F)(F)F)cc(OC)c1C(=O)N[C@@]1(c2ccccc2)CC[C@@H]2CC[C@H]1N2C (racemic) [Example 13, 2-Ethyl-6-methoxy-N-((1RS,2RS,5SR)-8-methyl-2-phenyl-8-aza-bicyclo[3.2.1]oct-2-yl)-4-trifluoromethyl-benzamide]	14
CCc1cc(C(F)(F)F)ccc1C(=O)N[C@]1(c2ccccc2)CC[C@H]2CC[C@@H]1N2C (stereo in doubt) [Example 5, 2-Ethyl-N-((1S,2S,5R) or (1R,2R,5S)-8-methyl-2-phenyl-8-aza-bicyclo[3.2.1]oct-2-yl)-4-trifluoromethyl-benzamide]	19
CCc1cc(C(F)(F)F)ccc1C(=O)N[C@@]1(c2ccccc2)CC[C@@H]2CC[C@H]1N2C (stereo in doubt) [Example 6, 2-Ethyl-N-((1R,2R,5S) or (1S,2S,5R)-8-methyl-2-phenyl-8-aza-bicyclo[3.2.1]oct-2-yl)-4-trifluoromethyl-benzamide]	31
COc1cc(C(F)(F)F)cc(C)c1C(=O)N[C@@]1(c2ccccc2)CC[C@@H]2CC[C@H]1N2C (stereo in doubt) [Example 7, 2-Methoxy-6-methyl-N-((1RS,2RS,5SR)-8-methyl-2-phenyl-8-aza-bicyclo[3.2.1]oct-2-yl)-4-trifluoromethyl-benzamide]	6
COc1cc(C(F)(F)F)cc(C)c1C(=O)N[C@]1(c2ccccc2)CC[C@H]2CC[C@@H]1N2C (stereo in doubt) [Example 8, 2-Methoxy-6-methyl-N-((1S,2S,5R) or (1R,2R,5S)-8-methyl-2-phenyl-8-aza-bicyclo[3.2.1]oct-2-yl)-4-trifluoromethyl-benzamide]	20
COc1cc(C(F)(F)F)cc(C)c1C(=O)N[C@@]1(c2ccccc2)CC[C@@H]2CC[C@H]1N2C (stereo in doubt) [Example 9, 2-Methoxy-6-methyl-N-((1R,2R,5S) or (1S,2S,5R)-8-methyl-2-phenyl-8-aza-bicyclo[3.2.1]oct-2-yl)-4-trifluoromethyl-benzamide]	20
COc1cc(C(F)(F)F)cc(C2CC2)c1C(=O)N[C@@]1(c2ccccc2)CC[C@@H]2CC[C@H]1N2C (stereo in doubt) [Example 10, 2-Cyclopropyl-6-methoxy-N-((1RS,2RS,5SR)-8-methyl-2-phenyl-8-aza-bicyclo[3.2.1]oct-2-yl)-4-trifluoromethyl-benzamide]	4
COc1cc(C(F)(F)F)cc(C2CC2)c1C(=O)N[C@]1(c2ccccc2)CC[C@H]2CC[C@@H]1N2C (stereo in doubt) [Example 11, 2-Cyclopropyl-6-methoxy-N-((1S,2S,5R) or (lR,2R.5S)-8-methyl-2-phenyl-8-aza-bicyclo[3.2.1]oct-2-yl)-4-trifluoromethyl-benzamide]	6
COc1cc(C(F)(F)F)cc(C2CC2)c1C(=O)N[C@@]1(c2ccccc2)CC[C@@H]2CC[C@H]1N2C (stereo in doubt) [Example 12, 2-Cyclopropyl-6-methoxy-N-((1R,2R,5S) or (1S,2S,5R)-8-methyl-2-phenyl-8-aza-bicyclo[3.2.1]oct-2-yl)-4-trifluoromethyl-benzamide]	6
COc1cc(C(F)(F)F)cc(SC)c1C(=O)N[C@]1(c2ccccc2)CC[C@H]2CC[C@@H]1N2C [Example 2, 2-Methoxy-N-((1S,2S,5R)-8-methyl-2-phenyl-8-aza-bicyclo[3.2.l]oct-2-yl)-6-methylsulfanyl-4-trifluoromethyl-benzamide]	21

Source: patent US8153653B2, “Amido-tropane derivatives” (Hoffmann-La Roche Inc., priority 2010, dated 2012)
